{
  "source": "BindingDB's records for doi:10.1021/acs.jmedchem.6b00247",
  "about": "(Sanford Burnham Prebys Medical Discovery Institute, 2016)",
  "test": "Antagonist activity against HIV-1 Vif in human CEM cells assessed as inhibition of viral infection",
  "data": [
    {"compound": "COc1ccccc1NC(=O)c1ccccc1Sc1ccc([N+](=O)[O-])cc1", "values": [
      {"measurement": "IC50", "value": 4.5, "unit": "µM"}
    ]}
  ]
}
